US8420100B2, “Tumor suppressor activating polypeptides and uses thereof” (Department of Biotechnology, priority 2006, dated 2013)

Columns and labels:
HIF-1α = assay: Immunohistochemical staining of tumor sections for HIF-1α; format: in vivo, mouse; conditions: tumors excised from treated mice
Text: Histopathological changes in the subcutaneous tumors: To analyze the tumor vasculature of TAT PTD, SM treated and P44 treated mice, the tumor sections were stained with HE. […] In SM treated tumors, due to compressed vessels, the shape of RBCs were also distorted (FIG. 7A, lower right panel, arrow marked). […] The presence of hypoxic cells is a hallmark of cancer (Brown, J. M., and Wilson, W. R. (2004) Nat. Rev. Cancer 4, 437-447; Minchinton, A. I., and Tannock, I. F. (2006) Nat. Rev. Cancer 6, 583-592). Cellular responses to hypoxia are triggered by the hypoxia inducible factor-1 alpha (HIF-1α) that is known to restore tissue homeostasis in hypoxic conditions (Semenza, G. L. (2000) Genes Dev. 14, 1983-1991). To determine the status of HIF-1α expression, immunohistochemical analysis was performed on tumor sections obtained from SM and P44 treated mice by using antibody against HIF-1 α. […] All these observations implicate the significance of P44 peptide in restoring tissue architecture in tumor cells and thus potentiates its role as a tumor regressor.
FIG. 7. Histopathological changes in B16F1-induced tumors. A, Hematoxylin and eosin staining of tumor sections excised from mice treated with either P44 (upper panel) or SM (lower panel) peptide. […] The images have been recorded at 20× and 40×. B, Immunohistochemistry of paraffin embedded tumor sections from P44 treated as well as, SM treated mice. After antigen unmasking, sections were stained with HIF-1α antibody (middle panel) and detected using Cy-3 conjugated mouse immunoglobulin. Sections were counterstained with DAP1 for nuclear localization (left panel). Right panel corresponds to the merged image.
Immunohistochemical staining of tumor sections: Tumor sections in paraffin-embedded blocks were transferred to poly-L-lysine coated glass slides and air-dried overnight at 37° C. They were dewaxed in xylene (three changes) and […] in graded series of decreasing ethanol concentrations. […] Thereafter, detected using cy-3 fluorescence labeled secondary antibody. […]

[1] = system: p53-driven p21 promoter in HEK 293 (p53+/+) cells; assay: p21 luciferase reporter assay in HEK 293 (p53+/+) cells; format: cell-based; conditions: 10 μM peptide, 12 h
Description: TAT-SMAR1 WT peptide (P44) modulates p53 function: To examine whether P44 peptide could alone activate p53^−, luciferase reporter assays were performed following treatment of cells with the chimeric TAT-SMAR1 derived peptides. HEK 293 (p53^+/+) cells were transfected with p21 expression plasmid having luciferase reporter gene and K562 (p53^−/−) cells were co-transfected with p21 luciferase reporter and p53 constructs. […] (FIG. 2A, bar 3) and about 1.5 fold activation in p53^−/− cell line (FIG. 2B, bar 4).
FIG. 2. P44 peptide activates the p53-driven p21 gene expression in reporter assays. p21 promoter activity was checked in both HEK 293 (p53^+/+) (A) and K562 (P53^−/−) cells (B). Cells were transfected with either pG13 […] reporter plasmid, a p53-driven p21 promoter, in HEK 293 cells or cotransfected with wild-type (wt) p53 in K562 cells. After 24 h post-transfection, cells were treated for 12 h with 10 μM concentration of various TAT-SMAR1 chimeric peptides. Y axis represents the fold luciferase activity (mean±SD of three independent experiments).
Luciferase reporter assay: HEK 293 (p53^+/+) and K562 (p53^−/−) cells were grown in DMEM supplemented with 10% FBS in the presence of 5% CO2 at 37° C., a total number of 1×10^6, cells were plated on a 6-well plate. After 24 h, cells were transiently transfected using lipofectamine-2000 with either 1 μg of p21 expression plasmid having luciferase reporter gene or 5 μg p21 luciferase along with wt p53 construct in K562 cell line. Two micrograms of pRL-CMV (Renilla luciferase reporter plasmid) was included in all transfections to normalize the transfection efficiency. Thirty six hours post-transfection, cells were treated with 10 μM of either P44 peptide or its various mutants. The cells were harvested 12 h post-treatment, washed with PBS and lysed in 1× Passive lysis buffer (Promega). After three freeze-thaw cycles, cells were spun at 10,000 rpm at 4° C. for 20 min. The supernatants were collected and protein concentrations were estimated spectrophotometrically using Bradford reagent as (BioRad, CA). According to the manufacturer's instructions, luciferase activity was assessed using the dual luciferase assay reporter kit (Promega). The luciferase activity was measured by using Fluoroskan Ascent Luminometer (Labsystems). For all the luciferase assays, the data shown are the mean+SD of three independent experiments.

p53 = target: T1, p53 (Homo sapiens, UniProt P04637); assay: Indirect immunofluorescence of p53 in peptide-treated HEK 293 cells (confocal imaging); format: cell-based; conditions: HEK 293, 10 μM peptide, 12 h
T1 construct: HEK 293 (p53^+/+) cells; endogenous in cells; host or cells: HEK 293
Description: HEK 293 cells were treated with 10 μM of various TAT-SMAR1 derived peptides.
FIG. 4. Serine 347 residue of SMAR1 mediates p53 activation and stabilization. A, HEK 293 cells were cultured at a density of 5×10^5 cells and 24 h later treated with 10 μM concentration of either the P44 or various serine-mutant peptides (PS347A, PS348A, PS349A, PS350A and RS mutant; SM). After 12 h of treatment, protein lysates were prepared and immunoblotted using pSer-15 p53 and pcdc-2 antibodies. Actin was used as the loading control. B, Peptides P44 (panel B), PS347A (panel C), PS348A (panel D), PS349A (panel E), PS350A (panel F) and SM (panel G) were incubated at a final concentration of 10 μM with HEK 293 cells for 12 h before indirect immunofluorescence detection with a primary antibody against p53 protein and a secondary fluorescein-conjugated anti-mouse IgG.
Immunocytochemistry and confocal imaging: For direct detection of TRITC-labeled peptides, HEK 293 cells were plated directly on a glass coverslip and cultured overnight prior to their treatment to TRITC-conjugated various TAT-SMAR1 derived peptides. After 12 h incubation, three washings with cold PBS were given and the cells fixed with 3.7% paraformaldehyde before being mounted in PBS/Glycerol (1:1) containing antifading agent. For indirect immunodetection, 2×10^5 HEK 293 cells were plated and cultured overnight in 35 mm plates on glass coverslips. The cell monolayer was then treated with either of the various TAT SMAR1 derived peptides, dissolved directly in complete DMEM medium at the appropriate concentration (final concentration 10 μM). After 12 h incubation, cells were washed twice with cold PBS and fixed with 3.7% paraformaldehyde. Subsequently, fixed cells were stained for total p53 using anti-p53 (DO-1) (SantaCruz) for an hour at room temperature.
For detection, cells were incubated with a secondary-antibody mix containing FITC-conjugated anti-mouse IgG antibodies (Sigma) for 1 h at RT. Slides were then mounted in antifade mounting medium (Dako) and analyzed with a confocal laser scanning microscope (CLSM 510, version 2.01; Zeiss, Thornwood, N.Y.).

T1 sequence (P04637 whole entry): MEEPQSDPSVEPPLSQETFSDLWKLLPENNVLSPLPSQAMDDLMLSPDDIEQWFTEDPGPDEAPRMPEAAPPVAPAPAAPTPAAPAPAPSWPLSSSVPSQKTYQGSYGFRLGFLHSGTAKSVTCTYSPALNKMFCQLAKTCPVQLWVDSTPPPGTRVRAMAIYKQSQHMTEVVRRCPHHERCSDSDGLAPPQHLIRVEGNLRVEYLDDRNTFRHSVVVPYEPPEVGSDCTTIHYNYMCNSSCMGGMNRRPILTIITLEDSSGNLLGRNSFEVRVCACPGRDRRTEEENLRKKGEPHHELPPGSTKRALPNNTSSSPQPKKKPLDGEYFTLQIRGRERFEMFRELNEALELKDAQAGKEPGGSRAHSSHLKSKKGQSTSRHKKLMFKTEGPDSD

Row | Sequence | HIF-1α expression in tumor sections (HIF-1α) | activation of p53 (p21 promoter driven luciferase activity) [1] | p53 activation and stabilization within the nucleus (p53)
1 | YGRKKRRQRRRTAWRRKQRGQSLAVKSFSRRTPAAAAYSASETM [SM, P44 mutant where serine residues from 347-350 were replaced by alanines] | increased HIF-1 α expression | complete loss | almost negligible expression of p53 within the nucleus
2 | YGRKKRRQRRRTAWRRKQRGQSLAVKSFSRRTPASSSYSASETM [PS347A, point mutant of P44, serine 347 replaced by alanine] | – | complete loss | almost negligible expression of p53 within the nucleus
3 | YGRKKRRQRRRTAWRRKQRGQSLAVKSFSRRTPSASSYSASETM [PS348A, point mutant of P44, serine 348 replaced by alanine] | – | No significant alteration | p53 stabilization was observed
4 | YGRKKRRQRRRTAWRRKQRGQSLAVKSFSRRTPSSASYSASETM [PS349A, point mutant of P44, serine 349 replaced by alanine] | – | No significant alteration | p53 stabilization was observed
5 | YGRKKRRQRRRTAWRRKQRGQSLAVKSFSRRTPSSSAYSASETM [PS350A, point mutant of P44, serine 350 replaced by alanine] | – | No significant alteration | p53 stabilization was observed
6 | YGRKKRRQRRRTAWRRKQRGQSLAVKSFSRRTPSSSSYSASETM [P44, 33 mer SMAR1 peptide (residues 324-357) conjugated with 11-mer TAT-PTD] | no detectable level of HIF-1α | 2 fold | activate and stabilize p53 within the nucleus
